Test [1] concerns the target Glyoxalase I (Pseudomonas putida). Put plainly: Binding affinity on Pseudomonas putida glyoxalase I (GlxI) was determined.
The target of test [2] is Glyoxalase I (Saccharomyces cerevisiae) (UniProt P50107). The test can be described thus: Binding affinity on yeast glyoxalase I (GlxI) was determined.
Chain of Glyoxalase I (Saccharomyces cerevisiae) (P50107 whole entry, looked up): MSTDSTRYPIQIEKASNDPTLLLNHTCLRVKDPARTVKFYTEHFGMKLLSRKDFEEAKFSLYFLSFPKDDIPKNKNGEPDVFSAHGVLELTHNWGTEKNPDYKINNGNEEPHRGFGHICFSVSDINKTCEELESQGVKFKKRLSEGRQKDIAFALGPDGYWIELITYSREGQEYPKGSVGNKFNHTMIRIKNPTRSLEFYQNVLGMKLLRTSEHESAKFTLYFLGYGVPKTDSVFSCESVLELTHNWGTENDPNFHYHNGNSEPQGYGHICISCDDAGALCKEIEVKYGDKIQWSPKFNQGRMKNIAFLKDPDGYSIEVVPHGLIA

By Ki is commonly meant the equilibrium dissociation constant of an inhibitor or competing ligand from its target. A lower Ki goes with higher affinity. Regarding `CN(O)C(=O)SC[C@H](NC(=O)CC[C@H](N)C(=O)O)C(=O)NCC(=O)O` [S-(N-methyl-N-hydroxycarbamoyl)glutathione], the Ki in test [1] worked out at 86 µM; in test [2], 68 µM.

The values are drawn from BindingDB's records for doi:10.1021/jm000160l (University of Maryland, 2000).
